Measurements taken from article PMC6804233, “Design and Synthesis of Novel 1,3-Thiazole and 2-Hydrazinyl-1,3-Thiazole Derivatives as Anti-Candida Agents: In Vitro Antifungal Screening, Molecular Docking Study, and Spectroscopic Investigation of their Binding Interaction with Bovine Serum Albumin” (Molecules, 2019).

Biological target: T1, bovine serum albumin (BSA) (Bos taurus, UniProt P02769)
T1 construct: gene ALB; BSA fraction V
Assay: Intrinsic tryptophan fluorescence quenching titration (Stern–Volmer; double-log plot for Kb), pH […], room temperature
Type: binding
Conditions: read-out: Kb × 10^5 (M^-1) (converted)

T1 sequence (P02769 25-607): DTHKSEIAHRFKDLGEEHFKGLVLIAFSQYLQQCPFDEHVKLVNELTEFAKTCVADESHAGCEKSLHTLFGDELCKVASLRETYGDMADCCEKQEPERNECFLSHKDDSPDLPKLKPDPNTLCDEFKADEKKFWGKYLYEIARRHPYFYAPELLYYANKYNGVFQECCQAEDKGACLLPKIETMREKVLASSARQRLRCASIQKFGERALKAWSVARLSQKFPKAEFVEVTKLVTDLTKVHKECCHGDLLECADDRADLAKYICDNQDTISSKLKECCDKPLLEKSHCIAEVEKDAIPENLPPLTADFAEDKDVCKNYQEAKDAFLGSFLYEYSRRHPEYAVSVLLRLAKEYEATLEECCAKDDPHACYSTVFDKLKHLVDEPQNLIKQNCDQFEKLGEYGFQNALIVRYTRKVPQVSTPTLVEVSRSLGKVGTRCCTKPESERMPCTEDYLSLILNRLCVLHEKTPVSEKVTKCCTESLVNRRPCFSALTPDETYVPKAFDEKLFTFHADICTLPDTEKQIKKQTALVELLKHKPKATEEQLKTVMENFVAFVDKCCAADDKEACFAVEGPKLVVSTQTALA

Structure (SMILES): Cc1ccc(-c2csc(NN=C(COc3cc(C)ccc3C(C)C)c3ccccc3)n2)cc1 [7e, 2-(2-(2-(2-isopropyl-5-methylphenoxy)-1-phenylethylidene)hydrazineyl)-4-(p-tolyl)thiazole]
- Kd: 4.42 µM
